Laboratory results as given in patent US12637464B2, “Tetracyclic compounds for treating brain disorders” (The Regents of the University of California, priority 2021, dated 2026).

Test system: PSYLI2 cells
Assay: PsychLight assays (agonist and antagonist mode)
Type: cell-based
Conditions: FIG. 3C-3E; agonist mode concentration-response, antagonist mode 1 μM
Method: PsychLight Assays. Psychlight assays were performed using a previously published method. Briefly, glass bottom 96-well plates were coated with 50 μg/mL of poly-D-lysine overnight at room temperature and then washed with Dulbecco's PBS. PSYLI2 cells were suspended in DMEM containing 10% FBS with 5% penicillin-streptomycin, plated at a density of 40,000 cells/well, and incubated (37° C., 5% CO2) for 24 h prior to each experiment. Immediately before an experiment, stock solutions of drugs in DMSO were diluted 1:100 in imaging media distributed across an empty 96-well plate (treatment plate) following a randomized plate map. The imaging media consisted of 1×HBSS containing […] and […]. […] Data were from 2 plates with 2-3 wells being analyzed per plate. […]
Once imaging was complete, the images were exported, and analyzed using a custom Python script. […] The mask was generated by calculating the average fluorescence intensity for the entire image and using that value as a threshold. […] The % ΔF/F values for each well were calculated using the following equation: […]
Once imaging was complete, the images were exported, and analyzed using a custom Python script. […] The mask was generated by calculating the average fluorescence intensity for the entire image and using that value as a threshold. […]

SMILES: CCN(CC)C(=O)[C@H]1C=C2c3cccc4ccn(c34)C[C@@H]2N(C)C1 [(−)-JRT]
- hallucinogenic potential (psychLight): low hallucinogenic potential
